Measurements: patent US10590078B2, “Sodium channel blockers” (Daewoong Pharmaceutical Co., Ltd., priority 2015, dated 2020)

Biological target: human sodium ion channel 1.7 (hNav1.7) (Homo sapiens, UniProt Q15858)
Assay: Blocking effect against sodium ion channel Nav1.7, IonFlux16 auto patch clamp in hNav1.7 HEK293 cells
Format: cell-based
Details: hNav1.7 HEK293 cells; inhibition of peak current after 50 seconds treatment; eight concentrations; read-out: IC50

Chain of human sodium ion channel 1.7 (hNav1.7) (Q15858 whole entry): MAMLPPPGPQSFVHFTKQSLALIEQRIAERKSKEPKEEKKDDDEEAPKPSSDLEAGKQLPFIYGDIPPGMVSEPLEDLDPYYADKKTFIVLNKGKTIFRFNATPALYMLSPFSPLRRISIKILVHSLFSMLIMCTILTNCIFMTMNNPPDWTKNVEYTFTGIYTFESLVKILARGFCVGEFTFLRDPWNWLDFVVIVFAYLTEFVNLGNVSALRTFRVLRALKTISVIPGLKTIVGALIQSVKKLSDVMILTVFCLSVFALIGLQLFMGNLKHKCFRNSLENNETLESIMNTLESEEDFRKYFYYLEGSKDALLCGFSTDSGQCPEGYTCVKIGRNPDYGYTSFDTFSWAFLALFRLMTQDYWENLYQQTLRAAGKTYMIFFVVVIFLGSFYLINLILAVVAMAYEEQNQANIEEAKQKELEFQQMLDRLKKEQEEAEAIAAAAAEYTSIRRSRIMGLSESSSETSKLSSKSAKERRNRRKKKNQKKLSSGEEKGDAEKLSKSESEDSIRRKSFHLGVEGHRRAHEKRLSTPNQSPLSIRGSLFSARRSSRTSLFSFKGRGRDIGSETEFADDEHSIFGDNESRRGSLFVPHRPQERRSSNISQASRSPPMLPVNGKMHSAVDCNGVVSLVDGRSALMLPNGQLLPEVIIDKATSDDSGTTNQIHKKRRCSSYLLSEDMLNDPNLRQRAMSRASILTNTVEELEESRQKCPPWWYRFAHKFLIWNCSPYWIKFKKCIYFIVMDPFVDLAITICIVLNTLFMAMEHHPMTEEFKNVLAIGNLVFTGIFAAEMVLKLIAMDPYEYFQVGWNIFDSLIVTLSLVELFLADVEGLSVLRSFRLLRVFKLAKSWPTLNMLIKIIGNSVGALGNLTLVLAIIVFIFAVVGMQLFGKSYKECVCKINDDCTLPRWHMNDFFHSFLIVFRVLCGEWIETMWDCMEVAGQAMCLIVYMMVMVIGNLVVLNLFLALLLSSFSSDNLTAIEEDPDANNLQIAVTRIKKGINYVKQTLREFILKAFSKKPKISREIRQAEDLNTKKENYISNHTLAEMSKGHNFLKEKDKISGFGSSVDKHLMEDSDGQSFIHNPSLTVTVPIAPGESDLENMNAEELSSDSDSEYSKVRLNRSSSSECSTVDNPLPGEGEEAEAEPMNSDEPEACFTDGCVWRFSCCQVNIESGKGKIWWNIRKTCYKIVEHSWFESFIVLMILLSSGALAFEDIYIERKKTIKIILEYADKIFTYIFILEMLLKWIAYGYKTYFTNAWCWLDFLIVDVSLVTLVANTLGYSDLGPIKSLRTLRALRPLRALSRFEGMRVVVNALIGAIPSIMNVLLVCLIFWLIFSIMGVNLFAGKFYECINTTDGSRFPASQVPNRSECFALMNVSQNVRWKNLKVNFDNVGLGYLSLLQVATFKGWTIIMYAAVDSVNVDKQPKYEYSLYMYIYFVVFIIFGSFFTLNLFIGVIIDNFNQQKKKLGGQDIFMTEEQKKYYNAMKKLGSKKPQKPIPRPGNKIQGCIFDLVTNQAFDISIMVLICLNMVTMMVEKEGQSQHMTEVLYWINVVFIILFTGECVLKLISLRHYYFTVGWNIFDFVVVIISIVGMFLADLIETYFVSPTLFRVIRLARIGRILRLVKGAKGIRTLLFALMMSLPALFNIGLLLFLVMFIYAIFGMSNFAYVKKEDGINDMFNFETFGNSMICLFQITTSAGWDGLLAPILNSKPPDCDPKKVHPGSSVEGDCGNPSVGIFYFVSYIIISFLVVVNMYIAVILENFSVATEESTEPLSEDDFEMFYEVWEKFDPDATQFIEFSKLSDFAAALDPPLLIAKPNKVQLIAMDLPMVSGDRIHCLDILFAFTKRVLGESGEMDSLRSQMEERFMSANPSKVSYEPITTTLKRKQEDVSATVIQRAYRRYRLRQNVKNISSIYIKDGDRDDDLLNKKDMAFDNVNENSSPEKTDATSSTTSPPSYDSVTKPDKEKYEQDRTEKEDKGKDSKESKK

Going from Cc1cccc(-c2nn(-c3cc(F)c(C(=O)NS(C)(=O)=O)cc3Cl)c3ccc(F)cc23)c1 [Example 152, 5-chloro-2-fluoro-4-(5-fluoro-3-(m-tolyl)-1H-indazol-1-yl)-N-(methylsulfonyl)benzamide] to CS(=O)(=O)NC(=O)c1cc(Cl)c(-n2nc(-c3cccc(C#N)c3)c3cc(F)ccc32)cc1F [Example 166, 5-chloro-4-(3-(3-cyanophenyl)-5-fluoro-1H-indazol-1-yl)-2-fluoro-N-(methylsulfonyl)benzamide], the IC50 rises from 80 nM to 228 nM (2.9-fold).

First: CS(=O)(=O)NC(=O)c1cc(Cl)c(-n2nc(-c3ccc(F)cc3)c3cc(F)ccc32)cc1F [Example 153, 5-chloro-2-fluoro-4-(5-fluoro-3-(4-fluorophenyl)-1H-indazol-1-yl)-N-(methylsulfonyl)benzamide]
Second: CS(=O)(=O)NC(=O)c1cc(Cl)c(-n2nc(-c3ccc(Cl)cc3)c3cc(F)ccc32)cc1F [Example 154, 5-chloro-4-(3-(4-chlorophenyl)-5-fluoro-1H-indazol-1-yl)-2-fluoro-N-(methylsulfonyl)benzamide]
The IC50 of the first is 3.3-fold higher: 200 nM for the first, 60 nM for the second. The second is the more potent here.

COc1ccc(-c2nn(-c3cc(F)c(C(=O)NS(C)(=O)=O)cc3Cl)c3ccc(F)cc23)cc1 [Example 155, 5-chloro-2-fluoro-4-(5-fluoro-3-(4-methoxyphenyl)-1H-indazol-1-yl)-N-(methylsulfonyl)benzamide] and Cc1ccc(-c2nn(-c3cc(F)c(C(=O)NS(C)(=O)=O)cc3Cl)c3ccc(F)cc23)cc1 [Example 156, 5-chloro-2-fluoro-4-(5-fluoro-3-(p-tolyl)-1H-indazol-1-yl)-N-(methylsulfonyl)benzamide] are within 1.5-fold of each other in IC50: 110 nM for the first, 100 nM for the second.

Compared with CS(=O)(=O)NC(=O)c1cc(Cl)c(-n2nc(-c3cc(F)cc(Cl)c3)c3cc(F)ccc32)cc1F [Example 157, 5-chloro-4-(3-(3-chloro-5-fluorophenyl)-5-fluoro-1H-indazol-1-yl)-2-fluoro-N-(methylsulfonyl)benzamide], CS(=O)(=O)NC(=O)c1cc(Cl)c(-n2nc(-c3ccc(Cl)c(F)c3)c3cc(F)ccc32)cc1F [Example 164, 5-chloro-4-(3-(4-chloro-3-fluorophenyl)-5-fluoro-1H-indazol-1-yl)-2-fluoro-N-(methylsulfonyl)benzamide] is 2.2-fold higher in IC50: 100 nM for the first, 220 nM for the second.

CS(=O)(=O)NC(=O)c1cc(Cl)c(-n2nc(-c3ccc(F)cc3Cl)c3cc(F)ccc32)cc1F [Example 158, 5-chloro-4-(3-(2-chloro-4-fluorophenyl)-5-fluoro-1H-indazol-1-yl)-2-fluoro-N-(methylsulfonyl)benzamide] and CS(=O)(=O)NC(=O)c1cc(Cl)c(-n2nc(-c3ccc(F)cc3F)c3cc(F)ccc32)cc1F [Example 159, 5-chloro-4-(3-(2,4-difluorophenyl)-5-fluoro-1H-indazol-1-yl)-2-fluoro-N-(methylsulfonyl)benzamide] are within 1.5-fold of each other in IC50: 80 nM for the first, 100 nM for the second.

First: CS(=O)(=O)NC(=O)c1cc(Cl)c(-n2nc(-c3cc(F)ccc3F)c3cc(F)ccc32)cc1F [Example 160, 5-chloro-4-(3-(2,5-difluorophenyl)-5-fluoro-1H-indazol-1-yl)-2-fluoro-N-(methylsulfonyl)benzamide]
Second: CS(=O)(=O)NC(=O)c1cc(Cl)c(-n2nc(-c3ccc(F)c(F)c3)c3cc(F)ccc32)cc1F [Example 161, 5-chloro-4-(3-(3,4-difluorophenyl)-5-fluoro-1H-indazol-1-yl)-2-fluoro-N-(methylsulfonyl)benzamide]
The IC50 of the first is 1.8-fold higher: 210 nM for the first, 120 nM for the second.

First: CS(=O)(=O)NC(=O)c1cc(Cl)c(-n2nc(-c3c(F)cccc3Cl)c3cc(F)ccc32)cc1F [Example 162, 5-chloro-4-(3-(2-chloro-6-fluorophenyl)-5-fluoro-1H-indazol-1-yl)-2-fluoro-N-(methylsulfonyl)benzamide]
Second: CS(=O)(=O)NC(=O)c1cc(Cl)c(-n2nc(-c3cccc(Cl)c3F)c3cc(F)ccc32)cc1F [Example 163, 5-chloro-4-(3-(3-chloro-2-fluorophenyl)-5-fluoro-1H-indazol-1-yl)-2-fluoro-N-(methylsulfonyl)benzamide]
The IC50 of the first is 5.3-fold higher: 640 nM for the first, 120 nM for the second.

First: CS(=O)(=O)NC(=O)c1cc(Cl)c(-n2nc(-c3cccnc3)c3cc(F)ccc32)cc1F [Example 165, 5-chloro-2-fluoro-4-(5-fluoro-3-(pyridin-3-yl)-1H-indazol-1-yl)-N-(methylsulfonyl)benzamide]
Second: CS(=O)(=O)NC(=O)c1cc(Cl)c(-n2nc(-c3cccc(F)c3)c3ccccc32)cc1F [Example 171, 5-chloro-2-fluoro-4-(3-(3-fluorophenyl)-1H-indazol-1-yl)-N-(methylsulfonyl)benzamide]
The IC50 of the first is 29-fold higher: 5490 nM for the first, 190 nM for the second.

CS(=O)(=O)NC(=O)c1ccc(-n2nc(-c3cccnc3)c3cc(F)ccc32)c(C#N)c1 [Example 167, 3-cyano-4-(5-fluoro-3-(pyridin-3-yl)-1H-indazol-1-yl)-N-(methylsulfonyl)benzamide] and CS(=O)(=O)NC(=O)c1ccc(-n2nc(-c3cccc(C#N)c3)c3cc(F)ccc32)c(C#N)c1 [Example 168, 3-cyano-4-(3-(3-cyanophenyl)-5-fluoro-1H-indazol-1-yl)-N-(methylsulfonyl)benzamide] cannot be ordered by IC50: over 10000 nM for the first, over 10000 nM for the second.

COc1ccc2c(c1)c(-c1ccc(Cl)cc1F)nn2-c1cc(F)c(C(=O)NS(C)(=O)=O)cc1Cl [Example 169, 5-chloro-4-(3-(4-chloro-2-fluorophenyl)-5-methoxy-1H-indazol-1-yl)-2-fluoro-N-(methylsulfonyl)benzamide] and CS(=O)(=O)NC(=O)c1cc(Cl)c(-n2nc(-c3ccc(F)cc3F)c3ccccc32)cc1F [Example 176, 5-chloro-4-(3-(2,4-difluorophenyl)-1H-indazol-1-yl)-2-fluoro-N-(methylsulfonyl)benzamide] are within 1.5-fold of each other in IC50: 180 nM for the first, 200 nM for the second.

Compared with CS(=O)(=O)NC(=O)c1cc(Cl)c(-n2nc(-c3cccc(Cl)c3)c3ccccc32)cc1F [Example 170, 5-chloro-4-(3-(3-chlorophenyl)-1H-indazol-1-yl)-2-fluoro-N-(methylsulfonyl)benzamide], CS(=O)(=O)NC(=O)c1cc(Cl)c(-n2nc(-c3cccc(C(F)(F)F)c3)c3ccccc32)cc1F [Example 172, 5-chloro-2-fluoro-N-(methylsulfonyl)-4-(3-(3-(trifluoromethyl)phenyl)-1H-indazol-1-yl)benzamide] is 2-fold higher in IC50: 70 nM for the first, 140 nM for the second. The first is the more potent here.

Compared with Cc1ccccc1-c1nn(-c2cc(F)c(C(=O)NS(C)(=O)=O)cc2Cl)c2ccccc12 [Example 173, 5-chloro-2-fluoro-N-(methylsulfonyl)-4-(3-(o-tolyl)-1H-indazol-1-yl)benzamide], COc1ccccc1-c1nn(-c2cc(F)c(C(=O)NS(C)(=O)=O)cc2Cl)c2ccccc12 [Example 174, 5-chloro-2-fluoro-4-(3-(2-methoxyphenyl)-1H-indazol-1-yl)-N-(methylsulfonyl)benzamide] is 4-fold higher in IC50: 210 nM for the first, 850 nM for the second. The first is the more potent here.

First: CS(=O)(=O)NC(=O)c1cc(Cl)c(-n2nc(-c3ccc(F)cc3Cl)c3ccccc32)cc1F [Example 175, 5-chloro-4-(3-(2-chloro-4-fluorophenyl)-1H-indazol-1-yl)-2-fluoro-N-(methylsulfonyl)benzamide]
Second: CS(=O)(=O)NC(=O)c1cc(Cl)c(-n2nc(-c3cnccc3F)c3ccccc32)cc1F [Example 177, 5-chloro-2-fluoro-4-(3-(4-fluoropyridin-3-yl)-1H-indazol-1-yl)-N-(methylsulfonyl)benzamide]
The IC50 of the first is 12-fold lower: 80 nM for the first, 970 nM for the second.
